For assay [1], the target named is T1, SARS-CoV-2 PLpro (nsp3 1564–1878) (Severe acute respiratory syndrome coronavirus 2, UniProt P0DTD1). As to the kind of experiment: biochemical. Further details: FRET-quenched peptide (Pro3) cleavage by PLpro, 10 min pre-incubation, slope over 20 min, normalised to no-compound control. The following applies: read-out: % of control remaining.
Assay [2] deals with T1, SARS-CoV-2 PLpro (nsp3 1564–1878). As to the kind of experiment: biochemical. Also on record: FRET-quenched peptide (Pro3) cleavage by PLpro, 10 min pre-incubation, slope over 20 min, normalised to no-compound control. The following applies: read-out: % of control remaining. This is another data set of the same source.

Counter-ions that a name gives are not always drawn. Like-named read-outs stand apart in the source and are kept apart here.

Take `O=C(O)CCCCCCCC(=O)O` [Azelaic acid]: the remaining activity at 1.25 µM in assay [1] (Well no.=243, low concentration screen) was 100%; in assay [1] (Well no.=6157, low concentration screen), 108%. Moreover, the remaining activity at 3.75 µM in assay [2] (Well no.=243, high concentration screen) turned out to be 98.7%; in assay [2] (Well no.=6157, high concentration screen), 105%.

`O/N=C/c1cc[n+](C[n+]2ccc(/C=N/O)cc2)cc1` [MMB-4]: the remaining activity at 1.25 µM in assay [1] amounted to 95.4%. In addition, the remaining activity at 3.75 µM in assay [2] turned out to be 93.7%.

As for `COc1cc(OC2CCN(C)CC2)ccc1Nc1ncc2c(n1)n(C1CCCC1)c(=O)n2C` [AZ 3146], in assay [1] (Well no.=5029, low concentration screen), the remaining activity at 1.25 µM amounted to 102%. The remaining activity at 3.75 µM in assay [2] (Well no.=5029, high concentration screen) was 101%.

`COCCOC(=O)C1=C(C)NC(C)=C(C(=O)OC/C=C/c2ccccc2)C1c1cccc([N+](=O)[O-])c1` (stereo not drawn) [Cilnidipine]: the remaining activity at 1.25 µM in assay [1] (Well no.=1759, low concentration screen) stood at 98.8%. Further, in assay [2] (Well no.=1759, high concentration screen), the remaining activity at 3.75 µM was 98.3%.

`COc1ccccc1OCC(O)COC(N)=O` (stereo not drawn) [Methocarbamol]: the remaining activity at 1.25 µM in assay [1] (Well no.=8238, low concentration screen) was found to be 98%. In addition, the remaining activity at 3.75 µM in assay [2] (Well no.=8238, high concentration screen) was found to be 94.6%.

For the compound `CC(C)C[C@H](NC(=O)[C@@H](O)[C@H](N)Cc1ccccc1)C(=O)O` [Bestatin hydrochloride], the remaining activity at 1.25 µM in assay [1] (Well no.=273, low concentration screen) was determined as 96.2%. Also, in assay [2] (Well no.=273, high concentration screen), the remaining activity at 3.75 µM was determined as 97.1%.

For `Cc1cccc(C)c1OCC(=O)N[C@@H](Cc1ccccc1)[C@@H](O)C[C@H](Cc1ccccc1)NC(=O)[C@H](C(C)C)N1CCCNC1=O` [Lopinavir], the remaining activity at 1.25 µM in assay [1] (Well no.=9076, low concentration screen) was 83.9%. Also, in assay [2] (Well no.=9076, high concentration screen), the remaining activity at 3.75 µM came out at 84.3%.

As to `O=C(c1ccc(F)cc1)C1CCN(CCn2c(=O)[nH]c3ccccc3c2=O)CC1` [Ketanserin], the remaining activity at 1.25 µM in assay [1] (Well no.=2106, low concentration screen) turned out to be 94.1%; in assay [1] (Well no.=6859, low concentration screen), 101%. The remaining activity at 3.75 µM in assay [2] (Well no.=2106, high concentration screen) worked out at 95.2%; in assay [2] (Well no.=6859, high concentration screen), 99%.

For the compound `CN[C@@H]1[C@H](O)[C@H](NC)[C@H]2O[C@@]3(O)C(=O)C[C@@H](C)O[C@H]3O[C@@H]2[C@H]1O` [Spectinomycin], the remaining activity at 1.25 µM in assay [1] (Well no.=3174, low concentration screen) worked out at 103%. In assay [2] (Well no.=3174, high concentration screen), the remaining activity at 3.75 µM amounted to 110%.

As for `Cn1c(=O)c2c(nc(/C=C/c3cccc(Cl)c3)n2C)n(C)c1=O` [8-(3-Chlorostyryl)caffeine], the remaining activity at 1.25 µM in assay [1] (Well no.=727, low concentration screen) came out at 100%. Also, the remaining activity at 3.75 µM in assay [2] (Well no.=727, high concentration screen) was 97.2%.

As for `CC(CN1c2ccccc2Sc2ccccc21)N(C)C` (stereo not drawn) [Promethazine hydrochloride], the remaining activity at 1.25 µM in assay [1] (Well no.=860, low concentration screen) is 100%. Further, in assay [2] (Well no.=860, high concentration screen), the remaining activity at 3.75 µM came to 101%.

As to `CN(C)C(=O)Oc1cc(OC(=O)N(C)C)cc(C(O)CNC(C)(C)C)c1` (stereo not drawn) [Bambuterol (hydrochloride)], in assay [1] (Well no.=6617, low concentration screen), the remaining activity at 1.25 µM is 100%. Moreover, the remaining activity at 3.75 µM in assay [2] (Well no.=6617, high concentration screen) was found to be 101%.

Consider `COCCOC(=O)C1=C(C)NC(C)=C(C(=O)OC(C)C)C1c1cccc([N+](=O)[O-])c1` (stereo not drawn) [Nimodipine], for which the remaining activity at 1.25 µM in assay [1] (Well no.=844, low concentration screen) came to 100%; in assay [1] (Well no.=1717, low concentration screen), 104%. The remaining activity at 3.75 µM was determined as 97.1% in assay [2] (Well no.=844, high concentration screen) and 101% in assay [2] (Well no.=1717, high concentration screen).

Turning to `CCn1cnc2c(Nc3cccc(Cl)c3)nc(N[C@@H]3CCCC[C@@H]3N)nc21` [Cdk1 Inhibitor, CGP74514A], the remaining activity at 1.25 µM in assay [1] (Well no.=2366, low concentration screen) was 96.7%. Also, the remaining activity at 3.75 µM in assay [2] (Well no.=2366, high concentration screen) is 96.1%.

For the compound `CN(C)c1ccc(O)c2c1C[C@H]1C[C@H]3[C@H](N(C)C)C(O)=C(C(N)=O)C(=O)[C@@]3(O)C(O)=C1C2=O` [Minocycline hydrochloride], the remaining activity at 1.25 µM in assay [1] (Well no.=797, low concentration screen) was found to be 104%. Moreover, the remaining activity at 3.75 µM in assay [2] (Well no.=797, high concentration screen) amounted to 102%.

As to `O=C(O)/C=C/c1ccc(O)c(O)c1` [Caffeic acid], the remaining activity at 1.25 µM in assay [1] (Well no.=233, low concentration screen) is 99%; in assay [1] (Well no.=3957, low concentration screen) it was 97%; in assay [1] (Well no.=7073, low concentration screen), 101%. Further, the remaining activity at 3.75 µM stood at 99.3% in assay [2] (Well no.=233, high concentration screen); 104% in assay [2] (Well no.=3125, high concentration screen); 96.7% in assay [2] (Well no.=3957, high concentration screen); 95.2% in assay [2] (Well no.=7073, high concentration screen).

With `CN1CC(=O)NC1=O` [N-Methylhydantoin], the remaining activity at 1.25 µM in assay [1] (Well no.=6395, low concentration screen) worked out at 95.6%. Moreover, the remaining activity at 3.75 µM in assay [2] (Well no.=6395, high concentration screen) is 98.5%.

As for `NC(=O)c1ccc(CNC(=O)NC[C@H]2CN(Cc3ccc(Cl)c(Cl)c3)CCO2)cc1` [GW 766994], the remaining activity at 1.25 µM in assay [1] (Well no.=8595, low concentration screen) is 104%. Besides, the remaining activity at 3.75 µM in assay [2] (Well no.=8595, high concentration screen) amounted to 103%.

Consider `Cc1onc(-c2c(Cl)cccc2Cl)c1C(=O)N[C@@H]1C(=O)N2[C@@H]1SC(C)(C)[C@@H]2C(=O)O` [Dicloxacillin Sodium], for which the remaining activity at 1.25 µM in assay [1] (Well no.=5360, low concentration screen) turned out to be 90.3%. In addition, the remaining activity at 3.75 µM in assay [2] (Well no.=5360, high concentration screen) was 89.6%.

`O=C1NC(=O)C(c2c[nH]c3ccccc23)=C1c1c[nH]c2ccccc12` [Bisindolylmaleimide IV]: in assay [1] (Well no.=2355, low concentration screen), the remaining activity at 1.25 µM turned out to be 101%. The remaining activity at 3.75 µM in assay [2] (Well no.=2355, high concentration screen) was found to be 99.7%.

For the compound `Cc1cc(N)c2ccccc2[n+]1CCCCCCCCCC[n+]1c(C)cc(N)c2ccccc21` [Dequalinium dichloride], the remaining activity at 1.25 µM in assay [1] (Well no.=449, low concentration screen) stood at 101%. For the same compound, the remaining activity at 3.75 µM in assay [2] (Well no.=449, high concentration screen) stood at 96.8%.

As for `Brc1c(Br)c(Br)c2n[nH]nc2c1Br` [TBB - 4,5,6,7-Tetrabromobenzotriazole], in assay [1] (Well no.=2494, low concentration screen), the remaining activity at 1.25 µM was 100%. Moreover, the remaining activity at 3.75 µM in assay [2] (Well no.=2494, high concentration screen) came out at 103%.

Turning to `O=C(O)COc1ccccc1C(Nc1ccccn1)c1cc(Cl)c2cccnc2c1O` (stereo not drawn) [Mcl1-IN-1], in assay [1] (Well no.=6880, low concentration screen), the remaining activity at 1.25 µM is 99.8%. Also, the remaining activity at 3.75 µM in assay [2] (Well no.=6880, high concentration screen) stood at 96.8%.

Consider `CCCCCCCCC(=O)NCc1cc(OC)c(O)cc1I` [6-Iodonordihydrocapsaicin], for which the remaining activity at 1.25 µM in assay [1] (Well no.=5963, low concentration screen) amounted to 95.9%. For the same compound, the remaining activity at 3.75 µM in assay [2] (Well no.=5963, high concentration screen) stood at 99%.

With `COC(=O)[C@H](c1ccccc1Cl)N1CCC2SC(=O)C=C2C1` (stereo partly drawn) [Clopidogrel thiolactone], the remaining activity at 1.25 µM in assay [1] (Well no.=8562, low concentration screen) amounted to 95.8%. In assay [2] (Well no.=8562, high concentration screen), the remaining activity at 3.75 µM is 95.5%.

Consider `COc1cc(Nc2ncc3ccn(-c4cccc(CCC#N)c4)c3n2)cc(OC)c1OC` [Casein Kinase II Inhibitor IV], for which the remaining activity at 1.25 µM in assay [1] (Well no.=2381, low concentration screen) is 104%. The remaining activity at 3.75 µM in assay [2] (Well no.=2381, high concentration screen) worked out at 105%.

In the case of `CC(C)c1cc(-c2ccc(F)c3ccccc23)nc(N)n1` [RS 127445], the remaining activity at 1.25 µM in assay [1] (Well no.=8477, low concentration screen) was found to be 107%. Moreover, the remaining activity at 3.75 µM in assay [2] (Well no.=8477, high concentration screen) is 105%.

As to `NC(N)=NCCC[C@H](NC(=O)c1sccc1NS(=O)(=O)c1cccc2nsnc12)C(=O)O` [EG00229], the remaining activity at 1.25 µM in assay [1] (Well no.=8174, low concentration screen) turned out to be 101%. In addition, in assay [2] (Well no.=8174, high concentration screen), the remaining activity at 3.75 µM amounted to 96.8%.

Take `CCCCCCCCCCCCCCCCOCC(CO)OC(C)=O` (stereo not drawn) [1-Hexadecyl-2-O-acetyl-glycerol]: in assay [1] (Well no.=4238, low concentration screen), the remaining activity at 1.25 µM turned out to be 95.2%. Further, in assay [2] (Well no.=4238, high concentration screen), the remaining activity at 3.75 µM was 98.7%.
